The values below come from PMC11513842, “Development of an orally bioavailable CDK12/13 degrader and induction of synthetic lethality with AKT pathway inhibition” (Cell Reports Medicine, 2024).

One test deals with 22RV1. As to the kind of experiment: Cell viability assay (CellTiter-Glo, 5 days). Conditions: Homo sapiens. The test is classed as cell-based. As for the experimental part: (§1) Cells were seeded in 96-well plates and incubated at 37°C with 5% CO2 overnight. A series of compound dilutions were added into the cells. After 5 days incubation, cell proliferation was tested using the CellTiter-Glo assay (Promega) according to the manufacturer’s protocol. Luminescence was measured using the Infinite M1000 Pro plate reader (Tecan). Data analysis was conducted using GraphPad Prism software.

A further test deals with BPH-1. As to the kind of experiment: Cell viability assay (CellTiter-Glo, 5 days). Conditions: Homo sapiens; BPH-1, dose-response curve, Figure 3A. The class given is cell-based. As to the method:
as §1
On the technique in general: ATP-based viability assays read luminescence as a measure of living cells.

In a further test the test system is CWR22RV1. As to the kind of experiment: Cell viability assay (CellTiter-Glo, 5 days). The test is classed as cell-based. The note with it: Homo sapiens, 120 h; CWR22RV1, 5 days of treatment, Figure 1F. As to the method:
as §1

Another test has as its system DU145. As to the kind of experiment: Cell viability assay (CellTiter-Glo, 5 days). The class given is cell-based. The note with it: Homo sapiens, DU-145, 120 h; DU145, 5 days of treatment, Figure 1F. As for the experimental part:
as §1

In another test the test system is LAPC4. As to the kind of experiment: Cell viability assay (CellTiter-Glo, 5 days). The test is classed as cell-based. Conditions: Homo sapiens. As to the method:
as §1

The next test concerns MCF10A. As to the kind of experiment: Cell viability assay (CellTiter-Glo, 5 days). The class given is cell-based. Conditions: Homo sapiens, MCF-10A, 120 h, 5 days of treatment, Figure 1F. As to the method:
as §1

Another test deals with MCF12A. Kind of test: Cell viability assay (CellTiter-Glo, 5 days). The class given is cell-based. The note with it: Homo sapiens, MCF-12A, 120 h, 5 days of treatment, Figure 1F. As for the experimental part: as §1
The subject of another test is MFM223. Kind of test: Cell viability assay (CellTiter-Glo, 5 days). The test is classed as cell-based. The note with it: Homo sapiens, MFM-223, 120 h; MFM223, 5 days of treatment, Figure 1F. As for the experimental part:
as §1

In another test the test system is PNT2. As to the kind of experiment: Cell viability assay (CellTiter-Glo, 5 days). Conditions: Homo sapiens, 120 h; PNT2, 5 days of treatment, Figure 1F. The test is classed as cell-based. As to the method:
as §1

The test system of another test is PrEC. As to the kind of experiment: Cell viability assay (CellTiter-Glo, 5 days). The test is classed as cell-based. The note with it: Homo sapiens, 120 h, 5 days of treatment, Figure 1F. As to the method: as §1
A further test deals with RWPE1. Kind of test: Cell viability assay (CellTiter-Glo, 5 days). The test is classed as cell-based. The note with it: Homo sapiens, RWPE-1; RWPE, dose-response curve, Figure 3A. As for the experimental part: as §1
The next test relates to SK-BR-3. Kind of test: Cell viability assay (CellTiter-Glo, 5 days). The class given is cell-based. Conditions: Homo sapiens, 120 h; SK-BR-3, 5 days of treatment, Figure 1F. As for the experimental part: as §1
A further test has as its system WPMY-1. Kind of test: Cell viability assay (CellTiter-Glo, 5 days). The class given is cell-based. Conditions: Homo sapiens, 120 h; WPMY-1, 5 days of treatment, Figure 1F. As to the method: as §1
The subject of a further test is PC310 organoids. As to the kind of experiment: PC310 organoid viability dose-response. The class given is cell-based. The note with it: Homo sapiens, Figure S1J.
For test [1], the system named is benign immortalized cell lines (PrEC, WPMY-1, BPH-1, RWPE1, PNT2, MCF10A, MCF12A). Kind of test: Cell viability, benign immortalized cell lines. The test is classed as cell-based. Conditions: Homo sapiens, 120 h; most benign immortalized cell lines, 5 days; read-out: half-maximal inhibitory concentration [IC50]. As to the method:
as §1

For another test, the system named is prostate cancer cells. As to the kind of experiment: Cell viability, prostate cancer cells. The test is classed as cell-based. Conditions: Homo sapiens, Figure 3A. As for the experimental part:
as §1

The subject of a further test is PC310 PDX. As to the kind of experiment: PC310 patient-derived xenograft efficacy. The test is classed as in vivo, mouse. Conditions: i.v. 30 mg/kg 3x/week. As to the method: Six-week-old male CB17SCID mice obtained from Charles River (Stock # 236), were used to establish subcutaneous tumors on both dorsal flanks. Tumor dimensions were measured biweekly using digital calipers, applying the formula (π/6) (L × W^2), where L and W represent tumor length and width, respectively. At the study conclusion, mice were euthanized, and tumors were excised and weighed. The University of Michigan Institutional Animal Care and Use Committee (IACUC) approved all in vivo studies.
WA74 PDX model was developed at the University of Michigan during collection of a rapid autopsy case as part of the Michigan Legacy Tissue Program (MLTP). PC310 PDX model was obtained from Erasmus Medical Center, Rotterdam, the Netherlands. Both PDX lines were propagated in male CB17SCID mice by surgically implanting 2 mm^3 tumor fragments, coated with 100% Matrigel, into both flanks of mice. When tumors reached approximately 200 mm^3, mice were randomized into treatment groups. These groups received either 30 mg/kg YJ9069 via intravenous injection or 100 mg/kg YJ1206 by oral gavage, both administered three times per week, with or without 15 mg/kg uprosertib by oral gavage five days per week for 3–4 weeks. In accordance with IACUC guidelines, the maximum tumor size was limited to 2.0 cm in any dimension, and mice were euthanized if xenografts reached this endpoint.

In another test the test system is VCaP cells. Kind of test: Comet assay. The test is classed as cell-based, human. Conditions: 100 nM, 12 h. As to the method: VCaP cells were seeded in 6-well plates one day prior to treatment. […] After 12 h incubation, the cells were trypsinized and resuspended at a concentration of 1 × 10^5 cells/mL in ice-cold PBS. The OxiSelect Comet Assay Kit (Cell Biolabs, STA-351) was used to assess DNA damage. Following the manufacturer’s protocol, cells were combined with pre-heated comet agarose at a 1:10 ratio, mixed thoroughly, and then transferred onto slides. The slides were incubated horizontally in the dark at 4°C for 20 min. Afterward, they were immersed in pre-chilled lysis buffer for 40 min at 4°C in the dark, followed by a 30-min incubation in pre-chilled alkaline solution at 4°C in the dark. Electrophoresis was then performed using alkaline solution at 30 V for 20 min. After electrophoresis, the slides were rinsed three times with pre-chilled deionized water, following with 70% ethanol for 5 min and completely dried at 37°C for 30 min. Subsequently, 100 μL of diluted Vista Green DNA dye was applied to each well. After 15 min incubation at room temperature, the comets were observed using a fluorescence microscope and quantified using ImageJ. The quantification figure was generated using GraphPad Prism software.

`O=C1CCC(N2C(=O)c3cccc(OCC(=O)N4CCN(c5ccc(N(C(=O)NCc6ccccc6)C6CCC(Nc7ncc8ccccc8n7)CC6)cc5)CC4)c3C2=O)C(=O)N1` (stereo not drawn) [YJ9069]: the IC50 in the test with 22RV1 (120 h, 22RV1, 5 days of treatment, Figure 1F) was 90.3 nM; in the test on 22RV1 (22RV1, dose-response curve, Figure 3A), 144 nM; in the test on BPH-1, more than 10000 nM; with CWR22RV1, 428 nM; with DU145 it was more than 10000 nM; in the test with LAPC4 (120 h, LAPC4, 5 days of treatment, Figure 1F), 152 nM. The IC50 was 109 nM in the test on LAPC4 (LAPC4, dose-response curve, Figure 3A); more than 10000 nM in the test with MCF10A; more than 10000 nM with MCF12A; 44.2 nM with MFM223; more than 10000 nM with PNT2; more than 10000 nM in the test with PrEC. The IC50 in the test on RWPE1 is more than 10000 nM; in the test on SK-BR-3, 1280 nM; in the test with WPMY-1 it was more than 10000 nM; in the test with PC310 organoids it was 107 nM; in test [1], more than 10000 nM; in the test on prostate cancer cells, less than 200 nM. Further, the “progressive disease (PD), waterfall plot (RECIST)” value in the test with PC310 PDX is 63%. In addition, the “stable disease (SD), waterfall plot (RECIST)” value in the test on PC310 PDX is listed as 31%. The “DNA damage (tail moment)” value in the test on VCaP cells is listed as “significant increase in the tail moment”.
